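How tested: cells in 96-well plates exposed to compound for 48 hours at five concentrations. Abbreviation: GI50, concentration required for 50% inhibition of growth.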 Activity calls are given as the source filed them. No stated cut-off is given here; in the data, active = GI50 up to about 1.1 µM and inactive = higher.
What was measured:
Experiment in all cases: NCI anticancer screen, dose series, 48 h
[1] = test system: SF-268
[2] = test system: M19-MEL
[3] = test system: IGROV-1
[4] = test system: SF-539
[5] = test system: NCI-H522
[6] = test system: HOP-18
[7] = test system: CAKI-1
[8] = test system: COLO 205
[9] = test system: OVCAR-4
[10] = test system: KM12
[11] = test system: SK-MEL-28
[12] = test system: SK-MEL-5
[13] = test system: MOLT-4
[14] = test system: SF-295
[15] = test system: SN12C
[16] = test system: HOP-92
[17] = test system: NCI/ADR-RES
[18] = test system: HCT-116
[19] = test system: HOP-62
[20] = test system: U-251
[21] = test system: A549
[22] = test system: UO-31
[23] = test system: HL-60
[24] = test system: A498
[25] = test system: DMS-273
[26] = test system: SNB-78
[27] = test system: NCI-H23
[28] = test system: MCF7
[29] = test system: HCT-15
[30] = test system: HCC 2998
[31] = test system: OVCAR-5
[32] = test system: LOX IMVI
[33] = test system: UACC-257
[34] = test system: KM-20L2
[35] = test system: SW-620
[36] = test system: CCRF-CEM
[37] = test system: EKVX
[38] = test system: HT-29
[39] = test system: SNB-75
[40] = test system: K562
[41] = test system: OVCAR-8
[42] = test system: DLD-1
[43] = test system: SNB-19
[44] = test system: DMS-114
[45] = test system: RPMI-8226
[46] = test system: SK-OV-3
[47] = test system: SK-MEL-2
[48] = test system: UACC-62
[49] = test system: NCI-H226
[50] = test system: RXF 393
[51] = test system: OVCAR-3
[52] = test system: NCI-H460
[53] = test system: SR
[54] = test system: Malme-3M
[55] = test system: 786-0
[56] = test system: ACHN
[57] = test system: TK-10
[58] = test system: M14
[59] = test system: LXFL 529

O=C1NC(=O)C2(CCc3ccc(N(CCCl)CCCl)cc32)N1 (stereo unspecified)
GI50 [1]: 7.36 µM (inactive)
GI50 [2]: 14.1 µM (inactive)
GI50 [3]: 15.9 µM (inactive)
GI50 [4]: 5.27 µM (inactive)
GI50 [5]: 5.26 µM (inactive)
GI50 [6]: 20.2 µM (inactive)
GI50 [7]: 3.56 µM (inactive)
GI50 [8]: 12.3 µM (inactive)
GI50 [9]: 19.8 µM (inactive)
GI50 [10]: 29.3 µM (inactive)
GI50 [11]: 17.5 µM (inactive)
GI50 [12]: 13.5 µM (inactive)
GI50 [13]: 0.931 µM (active)
GI50 [14]: 7.5 µM (inactive)
GI50 [15]: 5.37 µM (inactive)
GI50 [16]: 13.5 µM (inactive)
GI50 [17]: 9.77 µM (inactive)
GI50 [18]: 14.1 µM (inactive)
GI50 [19]: 9.91 µM (inactive)
GI50 [20]: 6.78 µM (inactive)
GI50 [21]: 8.36 µM (inactive)
GI50 [22]: 11 µM (inactive)
GI50 [23]: 1.65 µM (inactive)
GI50 [24]: 16.9 µM (inactive)
GI50 [25]: 2.94 µM (inactive)
GI50 [26]: 22 µM (inactive)
GI50 [27]: 6.5 µM (inactive)
GI50 [28]: 10.1 µM (inactive)
GI50 [29]: 15.1 µM
GI50 [30]: 15.9 µM (inactive)
GI50 [31]: 13.2 µM (inactive)
GI50 [32]: 8.99 µM (inactive)
GI50 [33]: 16.4 µM (inactive)
GI50 [34]: 19.5 µM (inactive)
GI50 [35]: 18.2 µM (inactive)
GI50 [36]: 1.41 µM (inactive)
GI50 [37]: 3.15 µM (inactive)
GI50 [38]: 16.4 µM (inactive)
GI50 [39]: 7.48 µM (inactive)
GI50 [40]: 19.8 µM (inactive)
GI50 [41]: 14.1 µM (inactive)
GI50 [42]: 19 µM (inactive)
GI50 [43]: 3.37 µM (inactive)
GI50 [44]: 10.9 µM (inactive)
GI50 [45]: 19.7 µM (inactive)
GI50 [46]: 16.1 µM (inactive)
GI50 [47]: 21.7 µM (inactive)
GI50 [48]: 4.33 µM (inactive)
GI50 [49]: 2.08 µM (inactive)
GI50 [50]: 6.7 µM (inactive)
GI50 [51]: 18.4 µM (inactive)
GI50 [52]: 3.98 µM (inactive)

CN(C)C(=S)/N=c1\ss/c(=N\C(=S)N(C)C)n1-c1ccc2c(c1)OCO2
GI50 [1]: > 100 µM (inactive)
GI50 [3]: 10 µM (inactive)
GI50 [4]: > 100 µM (inactive)
GI50 [53]: > 100 µM (inactive)
GI50 [5]: 15.6 µM (inactive)
GI50 [7]: > 100 µM (inactive)
GI50 [9]: 4.19 µM (inactive)
GI50 [54]: > 100 µM (inactive)
GI50 [10]: > 100 µM (inactive)
GI50 [11]: > 100 µM (inactive)
GI50 [55]: > 100 µM (inactive)
GI50 [12]: > 100 µM (inactive)
GI50 [56]: > 100 µM (inactive)
GI50 [14]: > 100 µM (inactive)
GI50 [15]: > 100 µM (inactive)
GI50 [57]: > 100 µM (inactive)
GI50 [18]: > 100 µM (inactive)
GI50 [19]: > 100 µM (inactive)
GI50 [20]: > 100 µM (inactive)
GI50 [21]: > 100 µM (inactive)
GI50 [22]: > 100 µM (inactive)
GI50 [23]: 3.27 µM (inactive)
GI50 [24]: > 100 µM (inactive)
GI50 [25]: > 100 µM (inactive)
GI50 [27]: > 100 µM (inactive)
GI50 [29]: > 100 µM
GI50 [30]: > 100 µM (inactive)
GI50 [31]: > 100 µM (inactive)
GI50 [32]: > 100 µM (inactive)
GI50 [33]: > 100 µM (inactive)
GI50 [34]: > 100 µM (inactive)
GI50 [35]: > 100 µM (inactive)
GI50 [37]: > 100 µM (inactive)
GI50 [39]: > 100 µM (inactive)
GI50 [40]: 4.86 µM (inactive)
GI50 [41]: > 100 µM (inactive)
GI50 [43]: > 100 µM (inactive)
GI50 [44]: 5.11 µM (inactive)
GI50 [46]: > 100 µM (inactive)
GI50 [47]: > 100 µM (inactive)
GI50 [48]: 5.56 µM (inactive)
GI50 [49]: > 100 µM (inactive)
GI50 [50]: > 100 µM (inactive)
GI50 [51]: > 100 µM (inactive)
GI50 [58]: > 100 µM (inactive)

COC1C=COC2(C)Oc3c(C)c(O)c4c(O)c(c(/C=N/N5CCN(N)CC5)c(O)c4c3C2=O)NC(=O)C(C)=CC=CC(C)C(O)C(C)C(O)C(C)C(OC(C)=O)C1C (stereo unspecified)
GI50 [1]: 62.5 µM (inactive)
GI50 [2]: 42 µM (inactive)
GI50 [3]: > 100 µM (inactive)
GI50 [4]: > 100 µM (inactive)
GI50 [53]: 34.1 µM (inactive)
GI50 [5]: 34 µM (inactive)
GI50 [7]: > 100 µM (inactive)
GI50 [8]: 37.8 µM (inactive)
GI50 [9]: 70.5 µM (inactive)
GI50 [54]: > 100 µM (inactive)
GI50 [10]: 68.4 µM (inactive)
GI50 [11]: 34.4 µM (inactive)
GI50 [55]: > 100 µM (inactive)
GI50 [12]: 84.3 µM (inactive)
GI50 [13]: 39 µM (inactive)
GI50 [56]: > 100 µM (inactive)
GI50 [14]: 84.3 µM (inactive)
GI50 [15]: > 100 µM (inactive)
GI50 [16]: 65.6 µM (inactive)
GI50 [57]: > 100 µM (inactive)
GI50 [18]: 30.7 µM (inactive)
GI50 [19]: > 100 µM (inactive)
GI50 [20]: > 100 µM (inactive)
GI50 [21]: > 100 µM (inactive)
GI50 [59]: 63.4 µM (inactive)
GI50 [22]: 41.7 µM (inactive)
GI50 [23]: 35.2 µM (inactive)
GI50 [24]: > 100 µM (inactive)
GI50 [25]: > 100 µM (inactive)
GI50 [26]: 88.1 µM (inactive)
GI50 [27]: 31.9 µM (inactive)
GI50 [29]: 80.7 µM
GI50 [30]: > 100 µM (inactive)
GI50 [31]: > 100 µM (inactive)
GI50 [32]: 69 µM (inactive)
GI50 [33]: > 100 µM (inactive)
GI50 [34]: > 100 µM (inactive)
GI50 [35]: 48 µM (inactive)
GI50 [36]: 20.1 µM (inactive)
GI50 [37]: > 100 µM (inactive)
GI50 [38]: 38.4 µM (inactive)
GI50 [39]: 34.7 µM (inactive)
GI50 [40]: 44.4 µM (inactive)
GI50 [41]: 88.3 µM (inactive)
GI50 [42]: 82.6 µM (inactive)
GI50 [43]: > 100 µM (inactive)
GI50 [44]: 64.4 µM (inactive)
GI50 [45]: 29.7 µM (inactive)
GI50 [46]: > 100 µM (inactive)
GI50 [47]: > 100 µM (inactive)
GI50 [48]: > 100 µM (inactive)
GI50 [49]: > 100 µM (inactive)
GI50 [50]: 34.7 µM (inactive)
GI50 [58]: > 100 µM (inactive)

— ChEMBL document CHEMBL1201862, “PubChem BioAssay data set” (2004)
